Patent publication US20200023001A1, “GlycoFix (Structurally And Functionally Repaired Endothelial Glycocalyx)” (Northeastern University, priority 2018, published 2020)
Where “and” joins values, the source holds several entries; their conditions need not be identical. Equal values may be shown once.

Test system: HS component of RFPEC glycocalyx
Experiment: HS component thickness and coverage by 10E4 HS immunofluorescence (Example 2)
Format: cell-based, rat
Method: RFPEC Culture. A rat fat pad endothelial cell (RFPEC) line^37 was utilized, originally isolated from rat epididymal fat pads by Dr. Mia Thi of Albert Einstein College of Medicine (Bronx, N.Y., USA). RFPECs were selected for their ability to naturally express a robust glycocalyx.^38 These ECs were cultured in tissue culture flasks at 37° C. and 5% CO2 in a humidified environment with Dulbecco's Modified Eagle's Medium (DMEM) supplemented with 10% fetal bovine serum (FBS) and 1% penicillin-streptomycin, all purchased from Thermo Fisher Scientific (Waltham, Mass., USA). For 3-(4,5-dimethylthiazol-2-yl)-5-(3-carboxymethoxyphenyl)-2-(4-sulfophenyl)-2H-tetrazolium (MTS) assays (Sigma-Aldrich Co., St Louis, Mo., USA), RFPECs were seeded at 3.7×10^4 cells/cm^2 in tissue culture-treated, 96-well plates (Falcon; Thermo Fisher Scientific) and imaged on a SpectraMax M3 plate reader to show cell viability and metabolic activity. For confocal imaging, RFPECs were seeded onto 12-mm diameter round glass cover slips (Thermo Fisher Scientific) at 1×10^4 cells/cm^2 in tissue culture-treated six-well plates (Falcon; Thermo Fisher Scientific). In both cases, the cells were allowed to grow for 48-60 hours to full confluence before starting the experiment.
RFPEC glycocalyx treatments. For control glycocalyx conditions, RFPEC cultures were grown in DMEM with 10% FBS and 1% penicillin-streptomycin. To generate dysfunctional glycocalyx conditions, the regular culture media of other RFPEC cultures was replaced with two variations of the modified media. For the collapsed glycocalyx configuration, the cells were grown in low serum media that consisted of DMEM with 1% penicillin-streptomycin and only 2% FBS.^1 For the degraded glycocalyx configuration, cultures were pretreated with DMEM/10^% FBS/1% penicillin-streptomycin containing a 2.5×10^−6 IU heparinase III (Hep III) (IBEX Pharmaceutical, Montreal, QC, Canada) enzyme for 2 hours, selectively degrading the HS glycosaminoglycans of the glycocalyx. To simulate a repaired glycocalyx state, the media containing Hep III was replaced with exogenous HS (Celsus Laboratories, Cincinnati, Ohio, USA) dissolved in DMEM/10% FBS/1% penicillin-streptomycin at 59 μg/mL. All RFPEC cultures, including those with untreated, collapsed, degraded, or repaired glycocalyx configurations, were exposed to 550 μg/mL of lyophilized and ultraviolet-sterilized PEG-AuNP during the 16-hour treatment time. Afterward, the free-floating particles were gently washed out before fixation to ensure that only the AuNP entrapped within the glycocalyx would be imaged. The red fluorescence detected from conjugated Alexa Fluor 647 was attributed to AuNP within the RFPEC monolayers (details are given in the “Confocal imaging and analysis” section).
Immunostaining. […]

[1] = RFPEC, Hep III 2 h then 16 h, with or without 59 μg/mL HS

Substance: heparan sulfate [HS]
- HS coverage of RFPEC, result in words (FIG. 10F legend): recovered
- HS coverage as % of the baseline measurements (Hep III, Hep III + 59 μg/mL HS): 44%
- HS component thickness [1]: 1.2 μm and 1.21±0.31 μm
- HS coverage of RFPEC surface [1]: 33.1%+3.7%
